Laboratory results published in paper PMC6689897, “Drugging an undruggable pocket on KRAS” (Proceedings of the National Academy of Sciences of the …, 2019).
Where “and” joins values, the source holds several entries; their conditions need not be identical. Equal values may be shown once. Read-outs that look alike come from different tables or passages of the source.

Legend:
Test in all cases: ITC
Format in all cases: binding
GCP-HRASwt = GCP-HRASwt (Homo sapiens, UniProt P01112); conditions: 25°C
GCP-HRASwt, sequence (P01112 1-166): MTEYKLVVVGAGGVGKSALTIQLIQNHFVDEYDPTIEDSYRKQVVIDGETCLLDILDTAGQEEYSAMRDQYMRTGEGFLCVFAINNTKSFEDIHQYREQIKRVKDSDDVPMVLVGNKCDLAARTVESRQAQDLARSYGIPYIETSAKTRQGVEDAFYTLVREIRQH
Method: (§1) 80 difference spectrum. Mixtures of four fragments (each at 250 µM) were incubated in 25
(§2) 82 a mixture of GCP-KRASG12D and GDP-KRASG12V (each 4 µM). Binders were identified
(§3) 83 by comparing pre-recorded reference spectra with the STD difference spectrum.
(§4) 84 Deconvolution and confirmation of primary FBS hits obtained from STD-NMR and
(§5) 85 MST was performed using 2D 1H/15N TROSY NMR experiments(2) collected on a
(§6) 86 Bruker Avance III 600 MHz spectrometer equipped with a 5 mm z-gradient TCI cryo-
(§7) 87 probe. Samples were prepared directly before data acquisition using a Tecan Freedom
(§8) 88 Evo pipetting system and delivered by a Bruker Sample Rail to the magnet. Each sample
(§9) 89 contained either 50 µM 15N labeled GDP-KRASG12D or GCP-KRASG12D in 25 mM Tris-
(§10) 90 d11, 100 mM NaCl, 2 mM MgCl2, 0.5 mM TCEP pH 7.4 and 8% (v/v) D2O. Proteins
(§11) 91 were incubated with 500 µM fragment in a 2.5 mm NMR tube at 298K and 1%
(§12) 92 d6DMSO. Spectra were recorded with 32 transients and 64 data points in the indirect
(§13) 93 dimension. Processing and analysis were accomplished with Topspin 3.0 (Bruker
(§14) 94 BioSpin). Binders were identified by manual comparison of spectra in the presence of a
(§15) 95 fragment and the respective reference spectrum. All confirmed binders to 15N labeled
(§16) 96 GDP-KRASG12D show also chemical shift perturbations in the presence of 15N labeled
(§17) 97 GDP-KRASG12V and are therefore non-selective.
(§18) 98 Measurement of dissociation constants KD for the compounds synthesized. NMR
(§19) 99 was initially the only method that could provide K Ds for the weakly binding molecules to
(§20) 100 support compound optimization. 1H/15N SoFast HMQC experiments(3) were recorded in
(§21) 101 3mm NMR tubes (170µL filling) at a protein concentration of 70-100µM. Spectra were
(§22) 102 recorded on a Avance III 700MHz spectrometer equipped with a cryogenically cooled
(§23) 103 5mm TCI probe and 48 scans, 128 f1 increments and 2k data points in f2. Total
(§24) 104 acquisition time was 22 minutes. 4 – 6 titration points were performed w ith individual
(§25) 105 samples for each titration point made from 50mM DMSO -d6 stock solutions. Total
(§26) 106 DMSO-d6 concentration was kept constant by backfilling every sample to a total of 4%
(§27) 107 DMSO. KDs were calculated from the differences in chemical shift induced by t he small
(§28) 108 molecules upon interacting with the protein. Average chemical shifts from the 1H and 15N
(§29) 109 dimension were calculated according to the following equation:
(§30) 110 ∆δobs = √[δH2 + (α ∙δN)2] with α set to 0.14
(§31) 111 The Δδobs values at the respective ligand concentrations and the total concentration
(§32) 112 of protein allow a fit to the KD value of the ligand as long as it is binding under fast
(§33) 113 exchange conditions as was the case for most of the compounds tested.(4) Usually Δδobs
(§34) 115 following equation was used to determine the individual KDs:
(§35) 116 ∆δobs = ∆δmax [([P]t + [L]t + KD) − [([P]t + [L]t + KD)2 − 4([P]t[L]t)]1/2]/2[P]t
(§36) 119 Calorimetric experiments were performed on a Microcal PEAQ-ITC calorimeter
(§37) 120 (MicroCalTM, LLC Northampton, MA). Protein solutions were measured in 20 mM
(§38) 121 HEPES, 150 mM NaCl, 3% DMSO, pH 7.5. All measurements were carried out at 25°C.
(§39) 122 Titrations were performed in inverse mode. The cell was loaded with compound solutions
(§40) 123 in the range of 10 to 100 µM. All injections were performed using an initial injection of
(§41) 124 0.5 μL followed by 19 injections of 2 μL of protein in the range of 130-500 µM. The data
(§42) 125 were analyzed with the MicroCal PEAQ-ITC analysis software package. The first data
(§43) 126 point was excluded from the analysis. Thermodynamic parameters were calculated (ΔG =
(§44) 127 ΔH - TΔS = -RTlnKB, where ΔG, ΔH and ΔS are the changes in free energy, enthalpy and
(§45) 128 entropy of binding, respectively).
(§46) 130 Protein purification, nucleotide exchange and crystallization
(§47) 131 The KRAS construct, based on uniprot identifier P01116 -2 (KRAS4-B) amino acids
(§48) 134 G12V) were expressed with an N-terminal His6-tag followed by a TEV (tobacco etch

GCP-KRASG12D = GCP-KRASG12D (Homo sapiens, UniProt P01116, G12D)
GCP-KRASG12D, sequence (P01116 1-169 isoform P01116-2 G12D): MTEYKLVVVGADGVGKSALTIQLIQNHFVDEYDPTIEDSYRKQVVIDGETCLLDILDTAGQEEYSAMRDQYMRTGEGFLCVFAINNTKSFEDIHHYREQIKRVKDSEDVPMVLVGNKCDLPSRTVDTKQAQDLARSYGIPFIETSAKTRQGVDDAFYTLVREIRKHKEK
Method: as §1, §2, §3, §4, §5, §6, §7, §8, §9, §10, §11, §12, §13, §14, §15, §16, §17, §18, §19, §20, §21, §22, §23, §24, §25, §26, §27, §28, §29, §30, §31, §32, §33, §34, §35, §36, §37, §38, §39, §40, §41, §42, §43, §44, §45, §46, §47, §48

GCP-KRASwt = GCP-KRASwt (Homo sapiens, UniProt P01116); conditions: for Kd: 25°C
GCP-KRASwt, sequence (P01116 1-169 isoform P01116-2): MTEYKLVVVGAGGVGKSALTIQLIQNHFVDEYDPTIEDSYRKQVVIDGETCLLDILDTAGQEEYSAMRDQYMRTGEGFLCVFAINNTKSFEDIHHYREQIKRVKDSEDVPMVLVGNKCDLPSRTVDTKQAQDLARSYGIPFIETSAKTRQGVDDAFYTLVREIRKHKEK
Method: as §1, §2, §3, §4, §5, §6, §7, §8, §9, §10, §11, §12, §13, §14, §15, §16, §17, §18, §19, §20, §21, §22, §23, §24, §25, §26, §27, §28, §29, §30, §31, §32, §33, §34, §35, §36, §37, §38, §39, §40, §41, §42, §43, §44, §45, §46, §47, §48

GCP-NRASwt = GCP-NRASwt (Homo sapiens, UniProt P01111, C118S); conditions: 25°C
GCP-NRASwt, sequence (P01111 1-172 C118S): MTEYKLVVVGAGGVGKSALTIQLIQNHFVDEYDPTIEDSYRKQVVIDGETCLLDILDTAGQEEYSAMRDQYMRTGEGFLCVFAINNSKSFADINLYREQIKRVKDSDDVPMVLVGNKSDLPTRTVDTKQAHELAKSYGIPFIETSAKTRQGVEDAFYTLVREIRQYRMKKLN
Method: as §1, §2, §3, §4, §5, §6, §7, §8, §9, §10, §11, §12, §13, §14, §15, §16, §17, §18, §19, §20, §21, §22, §23, §24, §25, §26, §27, §28, §29, §30, §31, §32, §33, §34, §35, §36, §37, §38, §39, §40, §41, §42, §43, §44, §45, §46, §47, §48

GDP-HRASwt = GDP-HRASwt (Homo sapiens, UniProt P01112); conditions: 25°C
GDP-HRASwt, sequence (P01112 1-166): as the sequence (P01112 1-166) above
Method: as §1, §2, §3, §4, §5, §6, §7, §8, §9, §10, §11, §12, §13, §14, §15, §16, §17, §18, §19, §20, §21, §22, §23, §24, §25, §26, §27, §28, §29, §30, §31, §32, §33, §34, §35, §36, §37, §38, §39, §40, §41, §42, §43, §44, §45, §46, §47, §48

GDP-KRASG12D = GDP-KRASG12D (Homo sapiens, UniProt P01116, G12D); conditions: 25°C
GDP-KRASG12D, sequence (P01116 1-169 isoform P01116-2 G12D): as the sequence (P01116 1-169 isoform P01116-2 G12D) above
Method: as §1, §2, §3, §4, §5, §6, §7, §8, §9, §10, §11, §12, §13, §14, §15, §16, §17, §18, §19, §20, §21, §22, §23, §24, §25, §26, §27, §28, §29, §30, §31, §32, §33, §34, §35, §36, §37, §38, §39, §40, §41, §42, §43, §44, §45, §46, §47, §48

GDP-KRASwt = GDP-KRASwt (Homo sapiens, UniProt P01116); conditions: 25°C
GDP-KRASwt, sequence (P01116 1-169 isoform P01116-2): as the sequence (P01116 1-169 isoform P01116-2) above
Method: as §1, §2, §3, §4, §5, §6, §7, §8, §9, §10, §11, §12, §13, §14, §15, §16, §17, §18, §19, §20, §21, §22, §23, §24, §25, §26, §27, §28, §29, §30, §31, §32, §33, §34, §35, §36, §37, §38, §39, §40, §41, §42, §43, §44, §45, §46, §47, §48

GDP-NRASwt = GDP-NRASwt (Homo sapiens, UniProt P01111, C118S); conditions: for Kd: 25°C
GDP-NRASwt, sequence (P01111 1-172 C118S): as the sequence (P01111 1-172 C118S) above
Method: as §1, §2, §3, §4, §5, §6, §7, §8, §9, §10, §11, §12, §13, §14, §15, §16, §17, §18, §19, §20, §21, §22, §23, §24, §25, §26, §27, §28, §29, §30, §31, §32, §33, §34, §35, §36, §37, §38, §39, §40, §41, §42, §43, §44, §45, §46, §47, §48

[1] = 25°C, read-out: KD(ITC) GCP-KRASG12D

Compound | Kd (GCP-HRASwt) | Kd (GCP-KRASG12D; [1]) | Kd (GCP-KRASG12D; read-out: KD GTP-KRAS^G12D as measured by ITC) | selectivity of binding to GCP-KRAS^wt (active KRAS^wt) (GCP-KRASwt) | Kd (GCP-KRASwt) | Kd (GCP-NRASwt) | Kd (GDP-HRASwt) | Kd (GDP-KRASG12D) | Kd (GDP-KRASwt) | selectivity window to inactive NRAS^wt (GDP-NRASwt) | Kd (GDP-NRASwt)
Cn1cnc(Cn2ccc3ccc(CNCc4[nH]c5ccccc5c4[C@H]4NC(=O)c5ccc(O)cc54)cc32)c1 [Compound 1] | 0.57 µM | 0.74 µM | 0.75 µM | 5- to 10 fold and 10 fold | 7.5 µM | 1.3 µM | 2.5 µM | 2 µM | 1.1 µM | 5- to 10 fold | 8.3 µM
CN(C)Cc1[nH]c2ccccc2c1[C@H]1NC(=O)c2ccc(O)cc21 [Compound 18] | 6.7 µM | 22 µM and 20 µM and 20.4 µM |  |  | 49 µM | 33 µM | 54 µM | 29 µM | 15 µM |  | 33 µM
